Measurements: ChEMBL document CHEMBL3046689, “Volatile aldehydes are promising broad-spectrum postharvest insecticides” (J Agric Food Chem, 2000)
Calls of active or inactive are those of the source. No cut-off for these calls is given here.

Tests used:
[1] = tested on: Lactuca sativa; assay: Phytotoxicity in naked Lactuca sativa (lettuce) assessed as residual aldehyde odor after compound application through two-tier reduced pressure fumigation at 30 mmHg for 0.5 hr and then 760 mmHg for 1.5 hr at 23 +/- 1 degC after 2 hr; assay type: organism-based; conditions: in vivo
[2] = tested on: Tetranychus urticae; assay: Insecticidal activity against Tetranychus urticae (two-spotted spider mite); assay type: functional, organism-based
[3] = tested on: Brassica oleracea var. italica; assay: Phytotoxicity in Brassica oleracea var. italica assessed as induction of olfactory damage after compound application for 1 hr through two-tier reduced pressure fumigation at 30 mmHg for 0.5 hr and then 760 mmHg for 1.5 hr at 23 +/- 1 degC; assay type: organism-based; conditions: in vivo
[4] = tested on: Brassica oleracea var. capitata; assay: Phytotoxicity in Brassica oleracea var. capitata (cabbage) after compound application for 1 hr through two-tier reduced pressure fumigation at 30 mmHg for 0.5 hr and then 760 mmHg for 1.5 hr at 23 +/- 1 degC; assay type: organism-based; conditions: in vivo
[5] = tested on: Malus domestica; assay: Phytotoxicity in Malus x domestica (apple) assessed as induction of visual damage after compound application for 1 hr through two-tier reduced pressure fumigation at 30 mmHg for 0.5 hr and then 760 mmHg for 1.5 hr at 23 +/- 1 degC; assay type: organism-based; conditions: in vivo
[6] = tested on: Citrus sinensis; assay: Phytotoxicity in Citrus sinensis (orange) assessed as induction of olfactory damage after compound application for 1 hr through two-tier reduced pressure fumigation at 30 mmHg for 0.5 hr and then 760 mmHg for 1.5 hr at 23 +/- 1 degC; assay type: organism-based; conditions: in vivo
[7] = tested on: Citrus limon; assay: Phytotoxicity in Citrus limon (lemon) assessed as induction of olfactory damage after compound application for 1 hr through two-tier reduced pressure fumigation at 30 mmHg for 0.5 hr and then 760 mmHg for 1.5 hr at 23 +/- 1 degC; assay type: organism-based; conditions: citrus x limon, in vivo
[8] = tested on: Vitis vinifera; assay: (§1) Phytotoxicity in Vitis vinifera assessed as induction of visual damage after compound application for 1 hr through two-tier reduced pressure fumigation at 30 mmHg for 0.5 hr and then 760 mmHg for 1.5 hr at 23 +/- 1 degC; assay type: organism-based; conditions: in vivo
[9] = tested on: Citrus sinensis; assay: Phytotoxicity in Citrus sinensis (orange) assessed as induction of visual damage after compound application for 1 hr through two-tier reduced pressure fumigation at 30 mmHg for 0.5 hr and then 760 mmHg for 1.5 hr at 23 +/- 1 degC; assay type: organism-based; conditions: in vivo
[10] = tested on: Vitis vinifera; assay: (§2) Phytotoxicity in Vitis vinifera assessed as induction of olfactory damage after compound application for 1 hr through two-tier reduced pressure fumigation at 30 mmHg for 0.5 hr and then 760 mmHg for 1.5 hr at 23 +/- 1 degC; assay type: organism-based; conditions: in vivo
[11] = tested on: Citrus x paradisi; assay: Phytotoxicity in Citrus x paradisi (grape fruit) assessed as induction of olfactory damage after compound application for 1 hr through two-tier reduced pressure fumigation at 30 mmHg for 0.5 hr and then 760 mmHg for 1.5 hr at 23 +/- 1 degC; assay type: organism-based; conditions: in vivo
[12] = tested on: Oryza sativa; assay: Phytotoxicity in Oryza sativa (rice) assessed as induction of visual damage after compound application for 1 hr through two-tier reduced pressure fumigation at 30 mmHg for 0.5 hr and then 760 mmHg for 1.5 hr at 23 +/- 1 degC; assay type: organism-based; conditions: in vivo
[13] = tested on: Vitis vinifera; assay: as §1; assay type: organism-based; conditions: in vivo; remark: listed apart in the source
[14] = tested on: Bemisia; assay: Insecticidal activity against Bemisia sp.; assay type: functional, organism-based
[15] = tested on: Citrus limon; assay: Phytotoxicity in Citrus limon (lemon) assessed as induction of visual damage after compound application for 1 hr through two-tier reduced pressure fumigation at 30 mmHg for 0.5 hr and then 760 mmHg for 1.5 hr at 23 +/- 1 degC; assay type: organism-based; conditions: citrus x limon, in vivo
[16] = tested on: Vitis vinifera; assay: as §2; assay type: organism-based; conditions: in vivo; remark: listed apart in the source
[17] = tested on: Brevicoryne brassicae; assay: Insecticidal activity against Brevicoryne brassicae (cabbage aphids); assay type: functional, organism-based
[18] = tested on: Pseudococcus viburni; assay: Insecticidal activity against Pseudococcus viburni; assay type: functional, organism-based
[19] = tested on: Brassica oleracea var. capitata; assay: Phytotoxicity in Brassica oleracea var. capitata (cabbage) assessed as induction of olfactory damage after compound application for 1 hr through two-tier reduced pressure fumigation at 30 mmHg for 0.5 hr and then 760 mmHg for 1.5 hr at 23 +/- 1 degC; assay type: organism-based; conditions: in vivo
[20] = tested on: Lactuca sativa; assay: Phytotoxicity in wrapped Lactuca sativa (lettuce) assessed as induction of visual damage after compound application for 1 hr through two-tier reduced pressure fumigation at 30 mmHg for 0.5 hr and then 760 mmHg for 1.5 hr at 23 +/- 1 degC; assay type: organism-based; conditions: in vivo
[21] = tested on: Citrus x paradisi; assay: Phytotoxicity in Citrus x paradisi (grape fruit) assessed as induction of visual damage after compound application for 1 hr through two-tier reduced pressure fumigation at 30 mmHg for 0.5 hr and then 760 mmHg for 1.5 hr at 23 +/- 1 degC; assay type: organism-based; conditions: in vivo
[22] = tested on: Lactuca sativa; assay: Phytotoxicity in naked Lactuca sativa (lettuce) assessed as change in visual quality after compound application through two-tier reduced pressure fumigation at 30 mmHg for 0.5 hr and then 760 mmHg for 1.5 hr at 23 +/- 1 degC after 2 hr; assay type: organism-based; conditions: in vivo
[23] = tested on: Oryza sativa; assay: Phytotoxicity in Oryza sativa (rice) assessed as induction of olfactory damage after compound application for 1 hr through two-tier reduced pressure fumigation at 30 mmHg for 0.5 hr and then 760 mmHg for 1.5 hr at 23 +/- 1 degC; assay type: organism-based; conditions: in vivo
[24] = tested on: Persea americana; assay: Phytotoxicity in Persea americana (avocado) assessed as induction of visual damage after compound application for 1 hr through two-tier reduced pressure fumigation at 30 mmHg for 0.5 hr and then 760 mmHg for 1.5 hr at 23 +/- 1 degC; assay type: organism-based; conditions: in vivo
[25] = tested on: Myzus persicae; assay: Insecticidal activity against Myzus persicae (green peach aphid) placed under third leaf of naked Iceburg lettuce heads and after compound application for 2 hr through two-tier reduced pressure fumigation at 30 mmHg for 0.5 hr and then 760 mmHg for 1.5 hr at 23 +/- 1 degC measured after 24 hr; assay type: functional
[26] = tested on: Brassica oleracea var. italica; assay: Phytotoxicity in Brassica oleracea var. italica assessed as induction of visual damage after compound application for 1 hr through two-tier reduced pressure fumigation at 30 mmHg for 0.5 hr and then 760 mmHg for 1.5 hr at 23 +/- 1 degC; assay type: organism-based; conditions: in vivo
[27] = tested on: Myzus persicae; assay: Insecticidal activity against Myzus persicae (green peach aphid) infested wrapped lettuce applied for 1 hr through two-tier reduced pressure fumigation at 30 mmHg for 0.5 hr and then 760 mmHg for 1.5 hr at 23 +/- 1 degC measured 24 hr; assay type: functional, organism-based
[28] = tested on: Phaseolus vulgaris; assay: PhytoToxicity in Phaseolus vulgaris (beans) assessed as induction of olfactory damage after compound application for 1 hr through two-tier reduced pressure fumigation at 30 mmHg for 0.5 hr and then 760 mmHg for 1.5 hr at 23 +/- 1 degC; assay type: organism-based; conditions: in vivo
[29] = tested on: Lactuca sativa; assay: Phytotoxicity in wrapped Lactuca sativa (lettuce) assessed as induction of olfactory damage after compound application for 1 hr through two-tier reduced pressure fumigation at 30 mmHg for 0.5 hr and then 760 mmHg for 1.5 hr at 23 +/- 1 degC; assay type: organism-based; conditions: in vivo
[30] = tested on: Phaseolus vulgaris; assay: PhytoToxicity in Phaseolus vulgaris (beans) assessed as induction of visual damage after compound application for 1 hr through two-tier reduced pressure fumigation at 30 mmHg for 0.5 hr and then 760 mmHg for 1.5 hr at 23 +/- 1 degC; assay type: organism-based; conditions: in vivo, other

With `CCC=O` [PROPIONALDEHYDE] the Activity [1] was “Toxic”, the Activity [2] was “inactive” and the Activity [3] was “Toxic”. The Activity [4] was “Toxic”, the Activity [5] was “Non-toxic” and the Activity [6] was “Non-toxic”. For the same compound, the Activity [7] was “Non-toxic”, the Activity [8] was “Non-toxic” and the Activity [9] was “Non-toxic”. The Activity [10] was “Non-toxic”, the Activity [11] was “Non-toxic” and the Activity [12] was “Non-toxic”. For the same compound, the Activity [13] was “Non-toxic”, the Activity [14] was “Active” and the Activity [15] was “Non-toxic”. The Activity [16] was “Non-toxic”, the Activity [17] was “inactive” and the Activity [18] was “Active”. The Activity [19] was “Toxic”, the Activity [20] was “Non-toxic” and the Activity [21] was “Non-toxic”. The Activity [22] was “Toxic”, the Activity [23] was “Non-toxic” and the Activity [24] was “Non-toxic”. For the same compound, the CTP [25] was 304 mg/L.hr, the LD90 [25] was 124.5 mg/L and the Activity [26] was “Non-toxic”. The Activity [27] was “Active”, the Activity [28] was “Non-toxic” and the Activity [29] was “Toxic”. For the same compound, the Activity [30] was “Non-toxic”.
